Data: ChEMBL document CHEMBL5291721, “A preclinical secondary pharmacology resource illuminates target-adverse drug reaction associations of marketed drugs” (Nat Commun, 2023)

Experiments:
[1] = biological target: Synaptic vesicular amine transporter (Rattus norvegicus, UniProt Q01827); format: functional
[2] = biological target: T1, Peroxisome proliferator-activated receptor gamma (Homo sapiens, UniProt P37231); format: functional
T1 sequence (P37231 whole entry): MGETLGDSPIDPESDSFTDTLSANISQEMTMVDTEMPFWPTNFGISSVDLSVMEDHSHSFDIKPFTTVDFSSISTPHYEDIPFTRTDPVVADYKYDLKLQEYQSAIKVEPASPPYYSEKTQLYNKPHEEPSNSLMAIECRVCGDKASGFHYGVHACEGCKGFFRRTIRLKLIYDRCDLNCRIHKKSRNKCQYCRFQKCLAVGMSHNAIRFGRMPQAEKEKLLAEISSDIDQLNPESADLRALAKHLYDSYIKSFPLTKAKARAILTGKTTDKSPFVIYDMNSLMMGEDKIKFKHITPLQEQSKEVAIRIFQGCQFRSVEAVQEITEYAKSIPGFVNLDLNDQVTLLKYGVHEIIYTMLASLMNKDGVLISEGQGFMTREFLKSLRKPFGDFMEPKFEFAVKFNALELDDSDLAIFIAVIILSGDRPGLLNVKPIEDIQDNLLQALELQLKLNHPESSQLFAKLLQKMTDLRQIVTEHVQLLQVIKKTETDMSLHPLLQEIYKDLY

D(1A) dopamine receptor [3] = biological target: T2, D(1A) dopamine receptor (Homo sapiens, UniProt P21728)
D(1A) dopamine receptor [4] = biological target: T2, D(1A) dopamine receptor; format: functional, cell-based
[5] = biological target: T3, Muscarinic acetylcholine receptor M1 (Homo sapiens, UniProt P11229)
T3 sequence (P11229 whole entry): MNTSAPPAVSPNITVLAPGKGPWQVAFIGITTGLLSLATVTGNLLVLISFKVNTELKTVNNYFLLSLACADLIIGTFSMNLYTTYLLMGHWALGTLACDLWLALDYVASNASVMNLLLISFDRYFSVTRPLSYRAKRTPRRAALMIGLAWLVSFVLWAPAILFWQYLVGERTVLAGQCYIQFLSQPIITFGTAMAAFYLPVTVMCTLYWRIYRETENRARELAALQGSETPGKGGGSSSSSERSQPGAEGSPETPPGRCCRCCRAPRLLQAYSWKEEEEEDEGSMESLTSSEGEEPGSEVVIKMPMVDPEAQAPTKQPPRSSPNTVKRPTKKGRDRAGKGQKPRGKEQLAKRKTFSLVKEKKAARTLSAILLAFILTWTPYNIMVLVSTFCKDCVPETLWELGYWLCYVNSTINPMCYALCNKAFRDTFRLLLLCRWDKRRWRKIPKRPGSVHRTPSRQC

[6] = biological target: 5-hydroxytryptamine receptor 2B (Homo sapiens, UniProt P41595)
Histamine H1 receptor [7] = biological target: T4, Histamine H1 receptor (Homo sapiens, UniProt P35367); format: functional, cell-based
Histamine H1 receptor [8] = biological target: T4, Histamine H1 receptor; format: functional, cell-based; remark: listed apart in the source
Histamine H2 receptor = Histamine H2 receptor (Homo sapiens, UniProt P25021)
Androgen receptor [9] = biological target: T5, Androgen receptor (Rattus norvegicus, UniProt P15207)
T5 sequence (P15207 whole entry): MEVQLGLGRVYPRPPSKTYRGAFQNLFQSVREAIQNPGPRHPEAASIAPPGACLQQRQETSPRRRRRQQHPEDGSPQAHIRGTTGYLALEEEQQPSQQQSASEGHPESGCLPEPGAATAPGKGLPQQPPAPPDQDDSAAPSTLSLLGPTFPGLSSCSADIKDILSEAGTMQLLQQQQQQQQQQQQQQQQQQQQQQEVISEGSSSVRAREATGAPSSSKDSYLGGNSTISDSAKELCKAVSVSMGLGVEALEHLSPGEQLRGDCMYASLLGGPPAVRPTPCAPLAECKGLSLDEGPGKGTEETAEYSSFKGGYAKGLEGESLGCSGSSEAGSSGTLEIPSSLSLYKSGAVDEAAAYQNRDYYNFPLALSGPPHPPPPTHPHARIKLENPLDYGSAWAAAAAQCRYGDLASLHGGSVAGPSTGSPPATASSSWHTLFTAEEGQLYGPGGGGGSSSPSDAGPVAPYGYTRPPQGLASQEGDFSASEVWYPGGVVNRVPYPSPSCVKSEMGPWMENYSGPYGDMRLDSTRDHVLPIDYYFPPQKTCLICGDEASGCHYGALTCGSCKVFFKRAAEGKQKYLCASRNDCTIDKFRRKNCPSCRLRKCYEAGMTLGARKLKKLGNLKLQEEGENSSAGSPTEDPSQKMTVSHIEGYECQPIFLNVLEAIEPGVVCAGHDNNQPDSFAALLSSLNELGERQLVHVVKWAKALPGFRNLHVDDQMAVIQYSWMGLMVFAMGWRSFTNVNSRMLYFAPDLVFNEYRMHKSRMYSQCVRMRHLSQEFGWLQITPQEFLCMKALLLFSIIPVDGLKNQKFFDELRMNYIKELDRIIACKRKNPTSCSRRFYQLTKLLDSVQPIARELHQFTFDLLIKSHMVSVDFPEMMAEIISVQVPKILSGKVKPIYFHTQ

[10] = biological target: Beta-1 adrenergic receptor (Homo sapiens, UniProt P08588); format: functional, cell-based
Androgen receptor [11] = biological target: T5, Androgen receptor; format: functional
[12] = biological target: Hydroxycarboxylic acid receptor 2 (Homo sapiens, UniProt Q8TDS4)
Cannabinoid receptor 1 = Cannabinoid receptor 1 (Homo sapiens, UniProt P21554); format: functional
[13] = biological target: Gamma-aminobutyric acid type B receptor subunit 1 (Homo sapiens, UniProt Q9UBS5)
[14] = biological target: 5-hydroxytryptamine receptor 5A (Homo sapiens, UniProt P47898)
D(1B) dopamine receptor = D(1B) dopamine receptor (Homo sapiens, UniProt P21918)
Also: assay procedure not described here.

Chain of Histamine H2 receptor (P25021 whole entry): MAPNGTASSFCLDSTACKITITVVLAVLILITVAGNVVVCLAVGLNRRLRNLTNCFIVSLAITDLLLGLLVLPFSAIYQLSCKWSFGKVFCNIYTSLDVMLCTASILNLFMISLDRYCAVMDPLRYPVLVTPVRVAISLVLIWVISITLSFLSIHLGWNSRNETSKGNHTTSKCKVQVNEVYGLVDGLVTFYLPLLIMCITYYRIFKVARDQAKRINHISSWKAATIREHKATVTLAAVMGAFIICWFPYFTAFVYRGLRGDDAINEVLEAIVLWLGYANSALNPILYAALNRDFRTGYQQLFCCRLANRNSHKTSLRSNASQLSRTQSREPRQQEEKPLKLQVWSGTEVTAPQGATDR
T4 sequence (P35367 whole entry): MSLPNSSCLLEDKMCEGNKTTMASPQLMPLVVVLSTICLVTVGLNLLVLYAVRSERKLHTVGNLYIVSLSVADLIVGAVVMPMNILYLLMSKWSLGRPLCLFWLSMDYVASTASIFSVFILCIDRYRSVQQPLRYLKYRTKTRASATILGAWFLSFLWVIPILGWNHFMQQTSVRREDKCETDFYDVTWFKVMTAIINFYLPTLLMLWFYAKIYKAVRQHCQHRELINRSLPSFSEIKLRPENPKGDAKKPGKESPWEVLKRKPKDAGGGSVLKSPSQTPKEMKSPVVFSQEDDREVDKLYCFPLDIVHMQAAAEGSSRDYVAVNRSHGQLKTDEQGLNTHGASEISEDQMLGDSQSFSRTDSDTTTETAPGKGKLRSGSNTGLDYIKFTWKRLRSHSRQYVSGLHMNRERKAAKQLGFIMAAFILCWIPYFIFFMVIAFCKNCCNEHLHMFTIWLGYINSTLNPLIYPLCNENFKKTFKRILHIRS
T2 sequence (P21728 whole entry): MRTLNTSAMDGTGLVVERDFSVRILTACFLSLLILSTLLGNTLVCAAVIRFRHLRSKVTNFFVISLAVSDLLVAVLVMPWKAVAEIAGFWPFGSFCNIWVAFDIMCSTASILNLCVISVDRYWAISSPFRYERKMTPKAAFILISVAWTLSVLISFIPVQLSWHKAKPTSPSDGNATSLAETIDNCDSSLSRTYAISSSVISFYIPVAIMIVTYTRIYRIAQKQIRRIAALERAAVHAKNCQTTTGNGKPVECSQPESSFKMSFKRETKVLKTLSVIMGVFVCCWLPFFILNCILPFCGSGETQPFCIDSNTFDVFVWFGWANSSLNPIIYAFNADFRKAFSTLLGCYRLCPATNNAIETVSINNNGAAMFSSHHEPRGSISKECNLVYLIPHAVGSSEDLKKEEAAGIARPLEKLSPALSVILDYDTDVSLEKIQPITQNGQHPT
Chain of Beta-1 adrenergic receptor (P08588 whole entry): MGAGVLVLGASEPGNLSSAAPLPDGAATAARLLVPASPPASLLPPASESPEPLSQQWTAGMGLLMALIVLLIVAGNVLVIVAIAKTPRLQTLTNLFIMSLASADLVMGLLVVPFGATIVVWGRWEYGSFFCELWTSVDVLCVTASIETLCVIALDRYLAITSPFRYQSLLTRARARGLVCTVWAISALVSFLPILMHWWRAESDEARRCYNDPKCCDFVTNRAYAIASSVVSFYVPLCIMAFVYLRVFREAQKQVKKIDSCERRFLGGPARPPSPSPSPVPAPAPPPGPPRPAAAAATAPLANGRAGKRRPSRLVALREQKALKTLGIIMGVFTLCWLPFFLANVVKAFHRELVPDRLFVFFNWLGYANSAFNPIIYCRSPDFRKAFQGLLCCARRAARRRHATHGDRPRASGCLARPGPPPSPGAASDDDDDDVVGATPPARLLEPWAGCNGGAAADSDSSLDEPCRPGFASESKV
Chain of Hydroxycarboxylic acid receptor 2 (Q8TDS4 whole entry): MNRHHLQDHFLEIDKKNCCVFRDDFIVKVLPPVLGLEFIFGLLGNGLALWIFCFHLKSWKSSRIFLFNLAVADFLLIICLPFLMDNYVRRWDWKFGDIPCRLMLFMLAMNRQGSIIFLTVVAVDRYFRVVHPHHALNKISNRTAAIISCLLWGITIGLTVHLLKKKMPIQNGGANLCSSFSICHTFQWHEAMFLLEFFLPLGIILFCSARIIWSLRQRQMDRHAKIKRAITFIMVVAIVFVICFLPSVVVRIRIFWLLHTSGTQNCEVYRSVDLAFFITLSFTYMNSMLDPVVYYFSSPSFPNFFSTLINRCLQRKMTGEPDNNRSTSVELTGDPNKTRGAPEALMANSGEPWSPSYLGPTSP
Chain of Gamma-aminobutyric acid type B receptor subunit 1 (Q9UBS5 whole entry): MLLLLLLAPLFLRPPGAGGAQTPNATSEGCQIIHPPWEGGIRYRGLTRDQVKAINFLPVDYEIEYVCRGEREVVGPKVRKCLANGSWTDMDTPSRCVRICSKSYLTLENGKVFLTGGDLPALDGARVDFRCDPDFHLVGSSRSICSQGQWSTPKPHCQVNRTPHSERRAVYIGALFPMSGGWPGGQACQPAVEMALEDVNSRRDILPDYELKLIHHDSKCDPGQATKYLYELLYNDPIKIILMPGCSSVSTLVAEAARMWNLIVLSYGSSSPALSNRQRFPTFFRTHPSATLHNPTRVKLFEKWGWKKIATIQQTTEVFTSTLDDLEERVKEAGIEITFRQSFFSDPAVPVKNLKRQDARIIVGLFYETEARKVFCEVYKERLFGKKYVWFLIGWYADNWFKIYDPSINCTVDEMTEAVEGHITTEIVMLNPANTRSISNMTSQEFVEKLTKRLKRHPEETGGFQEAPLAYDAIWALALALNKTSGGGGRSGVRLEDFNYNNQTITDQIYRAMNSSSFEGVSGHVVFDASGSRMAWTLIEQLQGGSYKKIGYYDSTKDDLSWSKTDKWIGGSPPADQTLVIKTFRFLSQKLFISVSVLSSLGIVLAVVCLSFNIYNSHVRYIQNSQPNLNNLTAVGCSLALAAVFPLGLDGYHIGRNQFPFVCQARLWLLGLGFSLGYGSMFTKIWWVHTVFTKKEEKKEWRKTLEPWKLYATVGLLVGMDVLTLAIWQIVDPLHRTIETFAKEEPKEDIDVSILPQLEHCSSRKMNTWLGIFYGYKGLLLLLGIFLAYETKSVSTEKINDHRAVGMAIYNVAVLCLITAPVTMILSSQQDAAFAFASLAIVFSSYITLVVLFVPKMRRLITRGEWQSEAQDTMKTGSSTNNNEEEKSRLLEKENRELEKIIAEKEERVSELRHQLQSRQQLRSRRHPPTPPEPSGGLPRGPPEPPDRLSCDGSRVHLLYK
Chain of Cannabinoid receptor 1 (P21554 whole entry): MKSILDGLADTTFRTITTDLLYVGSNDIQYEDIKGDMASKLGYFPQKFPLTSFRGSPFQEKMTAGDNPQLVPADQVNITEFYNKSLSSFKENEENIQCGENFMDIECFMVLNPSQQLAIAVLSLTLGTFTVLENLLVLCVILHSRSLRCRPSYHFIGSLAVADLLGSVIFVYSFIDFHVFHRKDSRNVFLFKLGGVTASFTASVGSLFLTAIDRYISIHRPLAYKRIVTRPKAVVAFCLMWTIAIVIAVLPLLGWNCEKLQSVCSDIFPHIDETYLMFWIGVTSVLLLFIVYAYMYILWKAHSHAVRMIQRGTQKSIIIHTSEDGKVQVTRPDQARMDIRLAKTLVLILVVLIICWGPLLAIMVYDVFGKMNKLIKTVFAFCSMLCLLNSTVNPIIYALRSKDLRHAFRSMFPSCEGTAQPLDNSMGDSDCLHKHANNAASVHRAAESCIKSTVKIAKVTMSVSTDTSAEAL
Chain of 5-hydroxytryptamine receptor 5A (P47898 whole entry): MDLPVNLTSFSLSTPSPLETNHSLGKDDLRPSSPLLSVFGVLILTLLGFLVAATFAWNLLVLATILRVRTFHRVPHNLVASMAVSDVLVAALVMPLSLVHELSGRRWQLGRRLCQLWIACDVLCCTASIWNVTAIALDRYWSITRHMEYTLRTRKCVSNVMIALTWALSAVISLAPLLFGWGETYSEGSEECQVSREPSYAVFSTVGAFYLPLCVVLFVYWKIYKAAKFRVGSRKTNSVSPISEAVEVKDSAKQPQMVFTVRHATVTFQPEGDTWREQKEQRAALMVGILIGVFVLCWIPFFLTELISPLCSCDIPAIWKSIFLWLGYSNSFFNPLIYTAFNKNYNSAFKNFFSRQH
Chain of 5-hydroxytryptamine receptor 2B (P41595 whole entry): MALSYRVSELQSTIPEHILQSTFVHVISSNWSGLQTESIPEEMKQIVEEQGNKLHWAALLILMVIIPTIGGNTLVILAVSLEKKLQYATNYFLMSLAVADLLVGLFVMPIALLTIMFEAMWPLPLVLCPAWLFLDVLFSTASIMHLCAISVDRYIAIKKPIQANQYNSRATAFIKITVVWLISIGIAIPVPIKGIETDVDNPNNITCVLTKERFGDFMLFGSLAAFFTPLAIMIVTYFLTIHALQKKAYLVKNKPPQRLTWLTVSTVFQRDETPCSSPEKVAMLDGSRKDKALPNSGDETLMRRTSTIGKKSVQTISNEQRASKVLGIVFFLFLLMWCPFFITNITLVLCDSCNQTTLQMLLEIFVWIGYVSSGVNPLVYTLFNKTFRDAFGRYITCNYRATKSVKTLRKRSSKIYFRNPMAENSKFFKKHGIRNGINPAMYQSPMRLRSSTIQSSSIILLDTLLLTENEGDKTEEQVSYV
Chain of D(1B) dopamine receptor (P21918 whole entry): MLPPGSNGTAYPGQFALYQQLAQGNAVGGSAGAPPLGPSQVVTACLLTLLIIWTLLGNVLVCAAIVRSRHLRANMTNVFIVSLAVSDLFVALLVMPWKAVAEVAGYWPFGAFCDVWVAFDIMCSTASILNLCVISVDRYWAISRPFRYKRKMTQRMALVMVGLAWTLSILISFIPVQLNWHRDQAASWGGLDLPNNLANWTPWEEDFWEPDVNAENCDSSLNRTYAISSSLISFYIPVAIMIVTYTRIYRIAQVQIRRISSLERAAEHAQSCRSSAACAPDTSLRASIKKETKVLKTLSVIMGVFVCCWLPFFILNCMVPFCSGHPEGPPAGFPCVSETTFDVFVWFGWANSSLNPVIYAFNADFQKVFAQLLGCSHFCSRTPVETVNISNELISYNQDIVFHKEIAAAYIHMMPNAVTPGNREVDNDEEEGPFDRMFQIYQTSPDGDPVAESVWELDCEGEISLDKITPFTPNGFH

`CC[C@@H](C(N)=O)N1CCCC1=O` gave an AC50 [1] greater than 30 µM and an AC50 [2] greater than 30 µM.
Molecule `CCC(CC)(CC(=O)Nc1cccc(/C=C/c2nc(C3CCC3)cs2)c1)C(=O)O` has an AC50 [2] greater than 30 µM.
`CC(=O)c1ccc2c(c1)N(CCCN(C)C)c1ccccc1S2` [ACEPROMAZINE] was tested, and the AC50 (D(1A) dopamine receptor [3]) was 0.066 µM and the AC50 (D(1A) dopamine receptor [4]) was 1.4 µM.
In the case of `Nc1ccncc1N` [AMIFAMPRIDINE], the AC50 [5] is reported as greater than 30 µM.
For `C=CCN1C[C@H](C(=O)N(CCCN(C)C)C(=O)NCC)C[C@@H]2c3cccc4[nH]cc(c34)C[C@H]21` [CABERGOLINE], the AC50 (D(1A) dopamine receptor [4]) was greater than 30 µM and the AC50 [6] was 0.0148 µM.
In the case of `CN1CCN(C2=Nc3ccccc3Sc3ccc(Cl)cc32)CC1` [CLOTHIAPINE], the AC50 (Histamine H1 receptor [7]) is reported as 0.63 µM and the AC50 (Histamine H1 receptor [8]) is reported as greater than 30 µM.
`CCOc1ccc(Cc2cc([C@@H]3O[C@H](CO)[C@@H](O)[C@H](O)[C@H]3O)ccc2Cl)cc1` [DAPAGLIFLOZIN] was tested, and the AC50 (Histamine H2 receptor) was greater than 10 µM and the AC50 (Androgen receptor [9]) was greater than 30 µM.
`CN(C)CC/C=C1\c2ccccc2CSc2ccccc21` [DOTHIEPIN] gave an AC50 [10] greater than 30 µM and an AC50 (Androgen receptor [11]) greater than 30 µM.
`CC[C@H]1CN2CCc3cc(OC)c(OC)cc3[C@@H]2C[C@@H]1C[C@H]1NCCc2cc(OC)c(OC)cc21` [EMETINE] showed an AC50 [2] greater than 30 µM.
`COc1ccc(C(=O)Nc2ccccc2CCC2CCCCN2C)cc1` (stereo unspecified) [ENCAINIDE] gave an AC50 [12] greater than 10 µM, an AC50 (Histamine H2 receptor) of 16.2 µM and an AC50 (Histamine H1 receptor [7]) greater than 30 µM. It also gave an AC50 (Histamine H1 receptor [8]) greater than 30 µM.
Work on `O=[N+]([O-])O[C@@H]1CO[C@H]2[C@@H]1OC[C@@H]2O` [ISOSORBIDE MONONITRATE] yielded an AC50 [12] greater than 10 µM and an AC50 (Histamine H2 receptor) greater than 10 µM.
`Cc1cc(C)c(NC(=O)CN(CC(=O)O)CC(=O)O)c(C)c1Br` [MEBROFENIN] showed an AC50 [5] greater than 30 µM.
With `COc1ccccc1N1CCN(CC(O)COc2cccc3ccccc23)CC1` (stereo unspecified) [NAFTOPIDIL] the AC50 [10] was greater than 30 µM and the AC50 [5] was greater than 30 µM.
`O=[N+]([O-])c1cn2c(n1)OC[C@@H](OCc1ccc(OC(F)(F)F)cc1)C2` [PRETOMANID] was tested, and the AC50 (Histamine H2 receptor) was greater than 10 µM and the AC50 (Cannabinoid receptor 1) was greater than 10 µM.
Work on `Cc1oc(=O)oc1CN1CCN(c2cc3c(cc2F)c(=O)c(C(=O)O)c2n3C(C)S2)CC1` (stereo unspecified) [PRULIFLOXACIN] yielded an AC50 [5] greater than 30 µM.
In the case of `CCCCCNC(=N)N/N=C/c1c[nH]c2ccc(OC)cc12` [TEGASEROD], the AC50 [13] is reported as greater than 10 µM, the AC50 [14] is reported as 0.19 µM and the AC50 [2] is reported as greater than 30 µM.
`C=CCCCCCCCCC(=O)O` [UNDECYLENIC ACID] was tested, and the AC50 [5] was greater than 30 µM.
Molecule `CCOc1ccccc1OCC1CNCCO1` (stereo unspecified) [VILOXAZINE] has an AC50 (Histamine H2 receptor) greater than 10 µM, an AC50 (Cannabinoid receptor 1) greater than 10 µM and an AC50 [13] greater than 10 µM. For the same molecule, the AC50 (Androgen receptor [9]) was greater than 30 µM, the AC50 [14] was greater than 10 µM and the AC50 (Histamine H1 receptor [7]) was greater than 30 µM. The AC50 (Histamine H1 receptor [8]) was greater than 30 µM and the AC50 (D(1B) dopamine receptor) was greater than 10 µM.
`CN(C)CCc1c[nH]c2ccc(C[C@H]3COC(=O)N3)cc12` [ZOLMITRIPTAN] gave an AC50 (Histamine H1 receptor [7]) greater than 30 µM and an AC50 (Histamine H1 receptor [8]) greater than 30 µM.
